This passage reports melting point, IC50 and pKi results from patent publication US8461336B2, “Boron-containing small molecules” (Anacor Pharmaceuticals, Inc., priority 2008, dated 2013).

SMILES strings stand for the structures. Counter-ions that a name gives are not always drawn.

One series addresses T1, ROCK1 (Homo sapiens, UniProt Q13464).
T1 construct: Catalytic Domain (amino acids 1-535); GST; purchased Reaction Biology Corp., Malvern, Pa; host or cells: insect cells
Put plainly: Kinase assay ROCK1 ([gamma-33P]ATP, S6 kinase peptide substrate). The series is classed as biochemical. The settings on record: 20 nM recombinant human ROCK1 catalytic domain, room temperature. The method, then: (§1) The kinase assays were performed at room temperature using 20 nM ROCK1 or ROCK2 enzyme and 20 uM peptide substrate, [gamma-^33P]ATP, and drug concentration were varied. The ROCK1 enzyme is recombinant human protein, Catalytic Domain (amino acids 1-535) (Reaction Biology Corp., Malvern, Pa.), GST-tagged, expressed in insect cells. MW=[…]. The ROCK2 enzyme is recombinant human protein (amino acids 11-552), N-terminal histidine-tagged, expressed in insect cells, MW=63.3 kDa (Reaction Biology Corp., Malvern, Pa.). The substrate was a peptide derived from S6 kinase peptide for both ROCK1 & 2 assays; [[…]], Mw=3630 Da (Reaction Biology Corp., Malvern, Pa.). The reaction buffer contained 20 mM HEPES-HCl, pH 7.5, 10 mM MgCl2, 1 mM EGTA, 0.02% Brij35, 0.1 mM Na3VO4, 0.02 mg/ml BSA, 2 mM DTT, and 1% DMSO. Enzyme/substrate/drug mixture were added and incubated for 20 min to ensure compound was equilibrated and bound to the enzyme. Then concentrations of ATP were added to initiate the reaction. The activity was monitored by filter plate capture of the radioactive peptide using ion exchange filtration (P81, Whatmann) and washed extensively. The reactions were monitored every 5-15 min to obtain progress curve with time course. At each time point, radioisotope signal (“P) was converted into “uM phosphate transferred to substrate”, and was plotted against time. The initial linear slope of progress curve was obtained by linear regression. The slopes (or velocity; uM/min) were then plotted against ATP concentrations for Michaelis-Menten plot, and subsequent Lineweaver-Burk plot (double-reciprocal plot) and secondary plot, using GraphPad Prism software.

A further series deals with T2, ROCK2 (Homo sapiens, UniProt O75116).
T2 construct: recombinant human protein (amino acids 11-552); His (N); purchased Reaction Biology Corp., Malvern, Pa; host or cells: insect cells
T2 sequence (O75116 11-552): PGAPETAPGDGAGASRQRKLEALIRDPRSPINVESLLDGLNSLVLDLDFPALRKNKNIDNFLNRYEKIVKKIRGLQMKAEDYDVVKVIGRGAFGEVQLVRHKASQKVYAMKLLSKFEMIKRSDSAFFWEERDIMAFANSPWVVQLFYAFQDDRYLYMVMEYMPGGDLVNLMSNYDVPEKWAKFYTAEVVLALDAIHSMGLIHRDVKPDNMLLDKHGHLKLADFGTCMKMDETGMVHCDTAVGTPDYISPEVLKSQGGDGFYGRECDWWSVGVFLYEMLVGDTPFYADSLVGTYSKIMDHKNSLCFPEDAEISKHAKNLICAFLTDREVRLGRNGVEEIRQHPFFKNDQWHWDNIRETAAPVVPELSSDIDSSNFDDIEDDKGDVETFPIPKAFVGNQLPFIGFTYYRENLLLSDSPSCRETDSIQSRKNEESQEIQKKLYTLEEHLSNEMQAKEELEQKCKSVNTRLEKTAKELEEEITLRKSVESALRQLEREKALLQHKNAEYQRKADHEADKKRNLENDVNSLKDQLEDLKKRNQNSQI
Description: Kinase assay ROCK2 ([gamma-33P]ATP, S6 kinase peptide substrate). Conditions: 20 nM recombinant human ROCK2, room temperature. It counts as biochemical. The method, then: as §1

The test system of another series is TNF-α. Description: Cytokine assay, LPS-induced TNF-α in human PBMC. The settings on record: 1 μg/mL LPS, supernatant at 24 hours. It counts as cell-based. The method, then: The ability of the compounds described herein to inhibit pro-inflammatory cytokines or phosphodiesterases were tested.
Frozen human peripheral blood mononucleocytes (PBMC) were thawed and centrifuged. Cryopreservation media was aspirated off of the cell pellet, and the cells were resuspended in fresh culture media (CM) comprising RPMI 1640 and 10% FBS in 96 well plates. Test article was dissolved in DMSO to form a 10 mM sample (DMSO, 100%). The 10 mM samples were diluted to 100 μM in CM (DMSO, 1%), then further diluted to 10, 1, 0.1, 0.01 μM in 200 μL of CM (n=3). […] IL-23 was assayed using a commercial ELISA kit (R&D Systems).

Another series deals with K-ATP channel. Conditions: example given in the text for K-ATP channel modulation; cited from earlier work.

T1 sequence (Q13464 1-535): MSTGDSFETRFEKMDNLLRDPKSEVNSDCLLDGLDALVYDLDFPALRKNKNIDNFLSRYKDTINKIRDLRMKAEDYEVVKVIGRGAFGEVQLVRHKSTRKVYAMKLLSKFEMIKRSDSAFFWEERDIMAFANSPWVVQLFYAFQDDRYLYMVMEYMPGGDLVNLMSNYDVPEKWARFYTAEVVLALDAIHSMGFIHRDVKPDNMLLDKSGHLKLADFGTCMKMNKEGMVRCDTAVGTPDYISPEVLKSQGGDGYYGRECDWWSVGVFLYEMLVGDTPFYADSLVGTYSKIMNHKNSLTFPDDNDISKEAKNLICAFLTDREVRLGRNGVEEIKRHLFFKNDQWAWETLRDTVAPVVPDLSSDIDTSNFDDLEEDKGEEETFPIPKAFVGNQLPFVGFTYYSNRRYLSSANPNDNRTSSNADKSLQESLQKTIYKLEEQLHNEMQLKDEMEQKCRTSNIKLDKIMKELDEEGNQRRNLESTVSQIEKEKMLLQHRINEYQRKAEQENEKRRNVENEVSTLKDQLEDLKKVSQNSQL

As a reminder, the melting point is the temperature of the solid-liquid transition. `NCc1ccc(Oc2ccc3c(c2)B(O)OC3)cc1` (as salt: chloride) [(4-(1-hydroxy-1,3-dihydrobenzo[c][1,2]oxaborol-6-yloxy)phenyl)methanaminium chloride]: the melting point is greater than 230 °C.

By IC50 is commonly meant the concentration that inhibits the measured activity by half. `NCc1ccc(Oc2ccc3c(c2)B(O)OC3)cc1` [T, (4-(1-hydroxy-1,3-dihydrobenzo[c][1,2]oxaborol-6-yloxy)phenyl)methanaminium chloride]: the IC50 at ROCK1 was found to be 8.1 µM; on ROCK2, 3.1 µM.

With `NCc1cccc(Oc2ccc3c(c2)B(O)OC3)c1` [U, (3-(1-hydroxy-1,3-dihydrobenzo[c][1,2]oxaborol-6-yloxy)phenyl)methanaminium chloride], the IC50 stood at 69.5 µM on ROCK1 and 40.2 µM at ROCK2.

Consider `NCc1ccc(Oc2ccc3c(c2)COB3O)cc1` [V, (4-(1-hydroxy-1,3-dihydrobenzo[c][1,2]oxaborol-5-yloxy)phenyl)methanaminium chloride], for which the IC50 was found to be 25.1 µM on ROCK1 and 10.1 µM at ROCK2.

Take `NCc1ccc(Oc2ccc3c(c2)B(O)OC3)c(F)c1` [W]: the concentration for half-maximal inhibition (IC50) stood at 2.44 µM at ROCK1, 0.86 µM on ROCK2 and 0.019 µM with TNF-α.

Turning to `NCc1ccc(Oc2ccc3c(c2)B(O)OC3)c(Cl)c1` [X], the values for the IC50 on ROCK1 and on ROCK2 were 4.75 µM and 2.11 µM, respectively.

For `N#Cc1ccc(Oc2ccc3c(c2)COB3O)nc1OC1CCCC1` [Z, 2-Cyclopentyloxy-6-(1-hydroxy-1,3-dihydro-benzo[c][1,2]oxaborol-5-yloxy)-nicotinonitrile], the IC50 on ROCK1 was determined as 18.1 µM; at ROCK2, 9.09 µM.

Usually pKi stands for the negative decadic logarithm of the Ki, by convention in mol/L. As for `CC1=NS(=O)(=O)c2cc(Cl)ccc2N1` [diazoxide], the pKi at K-ATP channel is reported as 3.8.
